Test [1] concerns alpha1. Description: Isolated perfused rabbit ear artery preparation, vasoconstriction indicative of alpha1 activity. The test is classed as cell-based. From the text: The isolated perfused rabbit ear artery preparation described by J. P. Hiebel and R. G. Pendleton, Arch.
The subject of test [2] is normal anesthetized dog. The experiment in a line: Intravenous infusion in the normal anesthetized dog (MAP, RBF, RVR, HR). The test is classed as in vivo. The settings on record: i.v. infusion.
The mark [3] stands for this setting: 0.3 μg/kg/min (base), A in 10% dimethylsulfoxide in 0.9% saline.
The mark [4] stands for this setting: 3 μg/kg/min (base), dopamine run in each test for comparison.

Structures are written as SMILES.

The values that follow come from patent US4414224A (SmithKline Beckman Corporation, priority 1982, dated 1983).

In the case of `CCCN(CCC)CCc1ccc(O)c2c1CC(=O)N2` [4-(2-di-n-propylaminoethyl)-7-hydroxy-2(3H)-indolone], in test [1], the “concentration at which vasoconstriction indicative of alpha1 activity was observed” value is given as “about 1000 nM”.
On to `Br.CCCN(CCC)CCc1ccc(O)c2c1CC(=O)N2` [A, 4-(2-di-n-propylaminoethyl)-7-hydroxy-2(3H)-indolone hydrobromide], for which, in test [2] (setting [3]), the “% Change HR (heart rate)” value is listed as “+3.6%”, the “% Change MAP (mean arterial blood pressure)” value (from here on “% Change MAP”) is -5.1%, the “% Change RBF (mean renal blood flow)” value is on record as “+4.6%” and the “% Change RVR (renal vascular resistance)” value is recorded as -0.5%. Moreover, in test [2] (setting [4]), the “% Change HR (heart rate)” value is recorded as -11.2%, the “% Change MAP” value is -24.7%, the “% Change RBF (mean renal blood flow)” value is “+24.7%” and the “% Change RVR (renal vascular resistance)” value is recorded as -39.1%. Further, in test [2] (30 μg/kg/min (base)), the “% Change HR (heart rate)” value is -6.9%, the “% Change MAP” value is listed as “+28.4%”, the “% Change RBF (mean renal blood flow)” value is on record as -19.4% and the “% Change RVR (renal vascular resistance)” value is “+59.2%”.
`CCCN(CCC)CCc1ccc(OC)c2c1CC(=O)N2.Cl` [B, 4-(2-di-n-propylaminoethyl)-7-methoxy-2(3H)-indolone hydrochloride]: in test [2] (setting [4]), the “% Change HR (heart rate)” value is -4.5%, the “% Change MAP” value is -3.6%, the “% Change RBF (mean renal blood flow)” value is reported as -11.6% and the “% Change RVR (renal vascular resistance)” value is “+8.9%”. Moreover, in test [2] (30 μg/kg/min (base)), the “% Change HR (heart rate)” value is given as -8.3%, the “% Change MAP” value is listed as -7.8%, the “% Change RBF (mean renal blood flow)” value is “+2.8%” and the “% Change RVR (renal vascular resistance)” value is listed as -9.5%. In test [2] (300 μg/kg/min (base)), the “% Change HR (heart rate)” value is on record as -7.8%, the “% Change MAP” value is given as “+0.1%”, the “% Change RBF (mean renal blood flow)” value is recorded as “+0.7%” and the “% Change RVR (renal vascular resistance)” value is given as “+1.6%”.
Take `Br.NCCc1ccc(O)c2c1CC(=O)N2` [C, 4-(2-aminoethyl)-7-hydroxy-2(3H)-indolone hydrobromide]: in test [2] (setting [4]), the “% Change HR (heart rate)” value is listed as -2.9%, the “% Change MAP” value is recorded as -10.6%, the “% Change RBF (mean renal blood flow)” value was -12.7% and the “% Change RVR (renal vascular resistance)” value is recorded as “+4.1%”. Moreover, in test [2] (30 μg/kg/min (base)), the “% Change HR (heart rate)” value is -2.9%, the “% Change MAP” value was -16.1%, the “% Change RBF (mean renal blood flow)” value is recorded as -12.3% and the “% Change RVR (renal vascular resistance)” value is -2.7%. In addition, in test [2] (300 μg/kg/min (base)), the “% Change HR (heart rate)” value was -15.8%, the “% Change MAP” value was “+62.6%”, the “% Change RBF (mean renal blood flow)” value is recorded as -32.7% and the “% Change RVR (renal vascular resistance)” value was “+167.0%”.
Regarding `COc1ccc(CCN)c2c1NC(=O)C2.Cl` [D, 4-(2-aminoethyl)-7-methoxy-2(3H)-indolone hydrochloride], in test [2] (setting [4]), the “% Change HR (heart rate)” value was -1.5%, the “% Change MAP” value is listed as -0.7%, the “% Change RBF (mean renal blood flow)” value is “+6.7%” and the “% Change RVR (renal vascular resistance)” value is given as -7.0%. For the same compound, in test [2] (30 μg/kg/min (base)), the “% Change HR (heart rate)” value was -2.8%, the “% Change MAP” value is listed as -2.3%, the “% Change RBF (mean renal blood flow)” value is reported as “+7.5%” and the “% Change RVR (renal vascular resistance)” value is -9.2%. For the same compound, in test [2] (300 μg/kg/min (base)), the “% Change HR (heart rate)” value was -1.6%, the “% Change MAP” value is reported as -9.8%, the “% Change RBF (mean renal blood flow)” value is listed as “+2.1%” and the “% Change RVR (renal vascular resistance)” value is -9.4%.
